Reference: PubChem BioAssay (NCI)
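Protocol summary: plate cells (96-well), add compound at 5 concentrations, incubate 48 h, interpolate endpoints linearly. The concentration for 50% growth inhibition is given as GI50. TGI: concentration producing complete growth inhibition.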 Where a SMILES comes first, the peptide text is derived from it. [ ]: non-standard residue; d: D form. The star is where a group is joined. X28 = COC1=CC(=O)N(C(=O)[C@@H](O*)C(C)C)[C@H]1Cc1ccccc1; Bn2Val = CC(C)[C@@H](C(=O)*)N(Cc1ccccc1)Cc1ccccc1; NMeV = CN[C@H](C(=O)O)C(C)C; dNMeA = CN[C@H](C)C(=O)O

Assays:
Assay in all cases: NCI tumour cell line growth inhibition, 48 h
PC-3 prostate = system: PC-3 prostate
SW-620 colon = system: SW-620 colon
SN12C renal = system: SN12C renal
HCC-2998 colon = system: HCC-2998 colon
A498 renal = system: A498 renal
OVCAR-3 ovarian = system: OVCAR-3 ovarian
T-47D breast = system: T-47D breast
NCI-H522 lung = system: NCI-H522 lung
HL-60(TB) leukemia = system: HL-60(TB) leukemia
CCRF-CEM leukemia = system: CCRF-CEM leukemia

| Structure (SMILES) | TGI (PC-3 prostate) [µM] | TGI (SW-620 colon) [µM] | TGI (SN12C renal) [µM] | TGI (HCC-2998 colon) [µM] | TGI (A498 renal) [µM] | TGI (OVCAR-3 ovarian) [µM] | TGI (T-47D breast) [µM] | TGI (NCI-H522 lung) [µM] | TGI (HL-60(TB) leukemia) [µM] | TGI (CCRF-CEM leukemia) [µM] | GI50 (PC-3 prostate) [nM] | GI50 (SN12C renal) [nM] | GI50 (A498 renal) [nM] | GI50 (OVCAR-3 ovarian) [nM] | GI50 (SW-620 colon) [nM] | GI50 (NCI-H522 lung) [nM] | GI50 (HL-60(TB) leukemia) [nM] | GI50 (HCC-2998 colon) [µM] | GI50 (T-47D breast) [nM] |
| --- | --- | --- | --- | --- | --- | --- | --- | --- | --- | --- | --- | --- | --- | --- | --- | --- | --- | --- | --- |
| Clc1ccc2nc3n[nH]c(Cl)c3nc2c1 | > 100 | > 100 | > 100 | > 100 | > 100 | > 100 | > 100 |  |  |  |  |  |  |  |  |  |  |  |  |
| Cc1ccc2n(c1)cc(-c1ccc(/C=N/NC(=N)N/N=C/c3ccc(-c4cn5cc(C)ccc5[n+]4C)cc3)cc1)[n+]2C | > 100 | > 100 | > 100 | > 100 |  |  | > 100 | > 100 | > 100 | > 100 |  |  |  |  |  |  |  |  |  |
| CCOC(=O)C1(C#N)C2(C#N)C(N)=NC(ON=C(C)C)(ON=C(C)C)C12C#N (stereo not drawn) | > 100 | > 100 | > 100 | > 100 | > 100 |  | > 100 | > 100 | > 100 | > 100 |  |  |  |  |  |  |  |  |  |
| Nc1ncnc2c1sc(=S)n2-c1ccccc1 |  | > 100 | > 100 | > 100 | > 100 | > 100 |  | > 100 | > 100 | > 100 |  |  |  |  |  |  |  |  |  |
| COC(=O)c1ccccc1NC(=S)NN(C)C | > 100 | > 100 |  | > 100 | > 100 | > 100 | > 100 | > 100 | > 100 | > 100 |  |  |  |  |  |  |  |  |  |
| Nc1ncnc2c1ncn2CCCC(c1ccccc1)P(=O)(O)O (stereo not drawn) |  | > 100 | > 100 | > 100 | > 100 | > 100 |  | > 100 | > 100 |  |  |  |  |  |  |  |  |  |  |
| Cn1cc(-c2nc(-c3c[nH]c4ccncc34)cs2)c2ccccc21 | 2.96 |  | 3.27 |  | 3.3 | 3.09 |  |  |  |  | 1450 | 1760 | 1860 | 1690 |  |  |  |  |  |
| O=C(NNS(=O)(=O)c1ccc(Br)cc1)c1ccc(Cl)cc1NC(=O)C12CC3CC(CC(C3)C1)C2 | 38.6 | 41.4 | 36.1 |  | 29 | 26.5 | > 100 | 25.1 | 67.9 | 76.5 |  |  |  |  |  |  |  |  |  |
| CC(C(=O)NCCNC(=O)CCC(=O)N(C)O)C(=O)NCCNC(=O)CCC(=O)N(C)O | > 100 | > 100 |  | > 100 | > 100 | > 100 | > 100 | > 100 | > 100 | > 100 |  |  |  |  |  |  |  |  |  |
| O=C(/C=C/c1ccc2c(c1)OCO2)NCCc1ccco1 | > 100 | > 100 | > 100 | > 100 |  | > 100 | > 100 | 79.7 |  | > 100 |  |  |  |  |  |  |  |  |  |
| CCCCCCCCCCCCCCCCNCC(O)CN (stereo not drawn) |  | 3.17 | 12.9 | 5.84 | 41.9 | 6.52 |  | 33.2 | 4.93 | 3.72 |  |  |  |  |  |  |  |  |  |
| COc1cc(OCc2nc3cc(C(F)(F)F)ccc3nc2-c2ccccc2)cc(OC)c1OC | > 100 | > 100 |  | > 100 | > 100 | > 100 | > 100 |  | > 100 | > 100 |  |  |  |  |  |  |  |  |  |
| O=C1CCCCC/C1=C\c1cccc([N+](=O)[O-])c1 | > 100 | > 100 | > 100 | 44 | > 100 | > 100 | > 100 |  | 57 | 44.2 |  |  |  |  |  |  |  |  |  |
| O=S(c1ccccc1)C1CC2CC3(CCC21O)OCCO3 (stereo not drawn) | > 100 | > 100 |  | > 100 | > 100 | > 100 | > 100 | > 100 | > 100 | > 100 |  |  |  |  |  |  |  |  |  |
| COc1cc(N)c2[nH]c3c(C)ccc(C)c3c2c1 |  | > 100 | > 100 | > 100 |  | > 100 |  | > 100 | > 100 | > 100 |  |  |  |  |  |  |  |  |  |
| COC1=CC(=O)N(C(=O)[C@@H](OC(=O)[C@@H](C)N(C)C(=O)[C@@H]2CCCN2C(=O)[C@H](C(C)C)N(C)C(=O)[C@@H](NC(=O)[C@H](C(C)C)N(Cc2ccccc2)Cc2ccccc2)C(C)C)C(C)C)[C@H]1Cc1ccccc1 (Bn2Val-V[NMeV]P[dNMeA]-X28) | > 100 | > 100 | > 100 | > 100 | > 100 | > 100 | > 100 | > 100 |  | > 100 |  |  |  |  |  |  |  |  |  |
| COC(=O)[C@@H]1[C@H](O)CCC2=C(CC(=O)c3ccoc3)[C@H](C)CC[C@]21C | > 50 | > 50 | > 50 | > 50 | > 50 | > 50 |  |  |  |  |  |  |  |  |  |  |  |  |  |
| C=CCNc1nc(O)c(/C=C2\C=Nc3ncccc32)s1 |  | 9.25 | 5.52 | 58.5 | 3.7 | 7.29 | 7.38 | 4.85 | 5.27 |  |  | 2100 | 1500 | 2210 | 2130 | 725 | 2100 | 3.4 | 2270 |
| CC(C)(C)c1ccc(O)c(C(c2ccc([N+](=O)[O-])cc2)c2cc(C(C)(C)C)ccc2O)c1 | 3.33 | 4.71 | 4.02 | 3.44 |  | 3.25 | 8.72 | 4.32 | 3.95 | 7.53 |  |  |  |  |  |  |  |  |  |
| CC(=O)Oc1c2c(c(OC(C)=O)c3c1n(C(C)=O)c1ccccc1n3C(C)=O)n(C(C)=O)c1ccccc1n2C(C)=O |  | 5.67 | 19.3 | 18.9 | 39 | 5.68 |  | 5.97 | 6.1 | 15.6 |  |  |  |  |  |  |  |  |  |
| C[C@]12C(=O)C=CCC1=CC[C@@H]1[C@@H]2[C@H]2CC3(O)C(=O)O[C@@]4(C)[C@H]5C[C@@]6(C)[C@@H]7[C@@]2(O)[C@]1(OC[C@H]6C(=O)O5)O[C@]734 (stereo partly drawn) | > 100 | > 100 | > 100 |  | > 100 |  |  | 46.2 | > 100 | > 100 |  |  |  |  |  |  |  |  |  |
| COc1ccc(C2S/C(=C\c3cccc(OC)c3)C(=O)N2NC(=O)Cc2ccccc2)cc1 (stereo not drawn) |  | > 100 | > 100 |  | > 100 |  |  | > 100 | > 100 | > 100 |  |  |  |  |  |  |  |  |  |
| COC(=O)CCCC1(CCCC(=O)OC)CCCCCCCCC(CCCC(=O)OC)(CCCC(=O)OC)C(=O)C1=O | 53.5 | > 100 | > 100 | > 100 | > 100 | 79.7 | > 100 | 5.38 | 12.2 |  |  |  |  |  |  |  |  |  |  |
